{"source": "patent US20110212199A1", "about": "“AGENT FOR TREATING EYE DISEASES” (priority 2003, published 2011)", "format_in_all_cases": "in vivo, human", "key": {"[1]": {"test_system": "normal tension glaucoma", "experiment": "Example 9: normal tension glaucoma patient", "method": "The patient is person diagnosed as normal tension glaucoma. Water-soluble 17β-estradiol inclusion product (Cyclodextrin-encapsulated 17β-estradiol available from SIGMA CO. […] To the above-mentioned patient, 1 drop (25 μl) of eye drops was dropped per one eye once every morning for 10 days."}, "[2]": {"test_system": "chorioretinal hemorrhage", "experiment": "Example 17: chorioretinal hemorrhage", "conditions": "person, right eye; 1 mg/l, 1 drop (50 μl) once every morning, with Adona 30 mg a day orally"}, "[3]": {"test_system": "chorioretinal atrophy", "experiment": "Example 23: chorioretinal atrophy", "conditions": "person, 1 mg/l"}, "[4]": {"test_system": "dynamic visual acuity", "experiment": "Example 26: dynamic visual acuity", "conditions": "person, left eye; 10 μg/ml, 50 μl one time; 30 minutes to 1 hour and 15 minutes after dropping"}, "[5]": {"test_system": "epidemic keratoconjunctivitis", "experiment": "Example 29: epidemic keratoconjunctivitis"}, "[6]": {"test_system": "central chorioretinopathy (choriotetinitis)", "experiment": "Example 31: central chorioretinopathy"}}, "data": [{"smiles": "C[C@]12CC[C@@H]3c4ccc(O)cc4CC[C@H]3[C@@H]1CC[C@@H]2O", "note": "[17β-estradiol]", "values": [{"measurement": "visual field by Octopus 1-2-3", "setting": "[1]; after 10 days", "result": "both eyes extremely well improved"}, {"measurement": "intraocular pressure, left", "setting": "[1]; after 10 days, before 12", "result": 9, "unit": "mmHg"}, {"measurement": "intraocular pressure, right", "setting": "[1]; person, 100 mg/l, 1 drop (25 μl) every morning for 10 days, before 14", "result": 12, "unit": "mmHg"}, {"measurement": "time until hemorrhage disappeared", "setting": "[2]", "result": 45, "unit": "days"}, {"measurement": "vision after correction, left eye", "setting": "[3]; 1 drop (50 μl) once a day for 1 month, before 0.1", "result": 0.3}, {"measurement": "vision after correction, right eye", "setting": "[3]; 50 μl once a day for 1 month, before 0.08 (n·c)", "result": 0.2}, {"measurement": "dynamic visual acuity (KV-100)", "setting": "[4]", "result": "abruptly improved"}, {"measurement": "eye discharge", "setting": "[5]; 1 mg/l once a day, fourth day", "result": "eye discharge was increased"}, {"measurement": "keratitis superficialis diffusa", "setting": "[5]; person, 1 mg/l, 1 drop (50 μl) once a day", "result": "cured at the fourth day"}, {"measurement": "visual acuity Vs", "setting": "[6]; after treatment, before 0.1", "result": 0.3}, {"measurement": "Vs corrected vision", "setting": "[6]; after treatment, before 0.8", "result": 1.5}, {"measurement": "macular edema", "setting": "[6]; person, left eye, 10 mg/l, 1 drop (50 μl) twice a day, a week", "result": "macular edema was lightened"}]}]}
